What was measured:
Type in all cases: cell-based, human
Bcl-1 = assay: Q-PCR, mRNA expression in oleic acid induced HepG2 cells
Excerpt: (§1) The culture, model establishment and drug treatment manners of the cells were the same as those in 1.2.4. After the completion of the treatment, the cells were collected, total RNA was extracted, then cDNA was synthesized by reverse transcription, and finally, the change of the transcription level of autophagy-related genes of the HepG2 cell in a nonalcoholic fatty liver disease model under the actions of petunidin-3-O-β-D glucoside and malvidin-3-O-β-D glucoside was detected by the real-time fluorescent quantitative PCR method, where the following method can be adopted:
(§2) 1. After the completion of drug treatment, the cells were washed with PBS for 2 times, added with 1 mL Trizol per about 1×10^7 cells, then pipetted up and down with a 1 mL pipette gun (free of RNA enzymes) until the liquid was clear and had no cell aggregate, transferred into a […] RNA-enzyme-free EP tube, mixed well by inverting up and down for 10 times, and lysed for 5 minutes at room temperature.
(§3) 1. The first strand of cDNA was synthesized by using 800 ng of total RNA as a template and a total system of 20 μL. A nuclease-free PCR tube in the ice bath was added with the following reagents:
(§4) 5. A reverse transcription reaction was carried out on a PCR machine under the following conditions: incubation at 25° C. for 10 min, cDNA synthesis at 50° C. for 30 min, and reaction termination at 85° C. for 5 min. The resulting cDNA product was stored at −20° C.
(§5) 1. According to the gene sequence provided in the literature, the primers were synthesized by Sangon Biotech (Shanghai) Co., Ltd., and the primer sequences of β-actin, APG5L, Apg7, p62 , Bcl-1 and FASN were shown in the table below:
(§6) 2. The above reaction solution was placed into a real-time quantitative PCR instrument for amplification, and the PCR reaction conditions were as shown in the table below:
(§7) For the expression of the target gene, the difference was corrected with a reference gene β-actin by a Ct value comparison method, and the changing multiple was 2^−ΔΔCt. The calculation formula was: the changing multiple=2^−ΔΔCt, where ΔΔCt=(Ct of the target gene−Ct of the reference gene) the drug treatment group−(Ct of the target gene−Ct of the reference gene) control.

Fas = assay: as above
Excerpt: as §1, §2, §3, §4, §5, §6, §7

APGSL = assay: as above
Excerpt: as §1, §2, §3, §4, §5, §6, §7

APG7 = assay: as above; conditions: for mRNA level of Apg7: high dose group; for mRNA expression of Apg7: low and medium doses
Excerpt: as §1, §2, §3, §4, §5, §6, §7

p62 = assay: as above; conditions: for mRNA level of p62: high dose group; for mRNA expression of p62: low and medium doses
Excerpt: as §1, §2, §3, §4, §5, §6, §7

high-fat HepG2 cells [1] = assay: Triglyceride (TG) content of the cells, TG kit; conditions: for level of TG in a high fat cell: FIGS. 4B, 5B; for level of TG, compared with control group and low dose group: medium and high doses
Procedure: (§8) 2. The culture, model establishment and experimental steps of the cells were operated according to the above steps. The anthocyanin compound mother liquor was diluted to 0, 0.1, 1, 10, 50, and 100 μM to treat the high-fat HepG2 cells, respectively.
(§9) 3. The culture solution was pipetted off, gently washed with PBS for 3 times, and added with trypsin to digest the cells for 1 min The cell suspension was pipetted into a 1.5 mL sterile EP tube, centrifuged at 1000 rpm for 10 minutes, the supernatant was discarded, the pellet was added with an appropriate amount of PBS, ultrasonically crushed under the condition of an ice-water bath, and the prepared homogenate was not centrifuged and was ready for determination.
The intracellular triglyceride content was determined according to the operating instructions of a triglyceride (TG) kit. The protein content in the cells was determined by a BCA protein concentration kit, and the triglyceride content in the cells was calibrated with the protein content.

high-fat HepG2 cells [2] = assay: Cellular aspartate aminotransferase (AST) content, AST kit; conditions: for level of AST in a high fat cell: FIGS. 4D, 5D; for level of AST, compared with control group and low dose group: medium and high doses
Procedure: as §8, §9
The intracellular aspartate aminotransferase (AST) content was determined according to the operating instructions of an AST kit. 1.2.4 Effect of petunidin-3-O-β-D glucoside and malvidin-3-O-β-D glucose on autophagy of HepG2 cells

Compound	mRNA expression level of Bcl-1 (Bcl-1)	mRNA expression level of Fas (Fas)	mRNA level of APGSL (APGSL)	mRNA level of Apg7 (APG7)	mRNA expression of Apg7 (APG7)	mRNA level of p62 (p62)	mRNA expression of p62 (p62)	level of TG in a high fat cell (high-fat HepG2 cells [1])	level of TG, compared with control group and low dose group (high-fat HepG2 cells [1])	level of AST in a high fat cell (high-fat HepG2 cells [2])	level of AST, compared with control group and low dose group (high-fat HepG2 cells [2])
COc1cc(-c2[o+]c3cc(O)cc(O)c3cc2O[C@@H]2O[C@H](CO)[C@@H](O)[C@H](O)[C@H]2O)cc(OC)c1O [malvidin-3-O-β-D glucoside]	significantly decrease	significantly decrease	up-regulate	up-regulate	reduced	up-regulate	reduced	reduce	very significant reduction	reduce	very significant reduction
COc1cc(-c2[o+]c3cc(O)cc(O)c3cc2O[C@@H]2O[C@H](CO)[C@@H](O)[C@H](O)[C@H]2O)cc(O)c1O [petunidin-3-O-β-D glucoside]	significantly decrease	significantly decrease	up-regulate	up-regulate	reduced	up-regulate	reduced	reduce	very significant reduction	reduce	very significant reduction

From US20200368260A1, “USE OF BENZOPYRAN COMPOUND IN PREPARATION OF PRODUCT FOR REGULATING LIPID METABOLISM AND COMPOSITION OF THE SAME” (priority 2019, published 2020)
